Results on four compounds are retold here after patent publication EP1434565B1, “USE OF GANODERIC ACIDS AS COSMETIC AGENTS” (YVES SAINT LAURENT PARFUMS, (Société Anonyme), priority 2001, dated 2003).

The subject of the assay is MMP1 (collagénase interstitielle humaine). Put plainly: Amount of MMP-1 produced by PMA-stimulated fibroblasts (ELISA). The class given is cell-based, humains. Particulars: for inhibition at 0.04 %: ganoderic acids 0.04 %, versus témoin + PMA, read-out: diminution de la quantité MMP1; for activity at 0.04 %: read-out: % témoin +PMA; for MMP1 (ng/ml): 4 h pre-incubation, +PMA 0.1 µg/ml. The text has this: Les essais figurant au tableau 2 ci-après concernent la régulation d'une enzyme, la MMP1 (collagénase interstitielle humaine) appartenant aux métalloprotéinases, de la famille des protéases, enzymes dégradant la matrice extra-cellulaire, la MMP1 dégradant particulièrement le collagène natif.
Les essais, dont les résultats figurent au tableau 2, ont donc consisté à comparer l'activité de la DHEA et des acides ganodériques B, C2 et G sur la régulation de l'activité de la MMP1 après stimulation des fibroblastes par PMA.
• Fibroblastes humains normaux profonds (type R2Ad2), utilisé au 2e passage. • Culture: 37° C, 5 % CO2 • Milieu de croissance : milieu Tebu PM-1 • Milieu d'essai : DMEM/HAMF10, vol/vol (Invitrogen 21969035 / Invitrogen 31550-023) • Hepes 15 mM (Invitrogen 1563-056) • L-glutamine 2 mM (Invitrogen 25030024) • pénicilline 50 UI/ml streptomycine 50 µg/ml (Invitrogen 15070063) • sans sérum de veau foetal
• solution stock : 10 % dans l'éthanol puis dilution à 0.1 % dans une solution de BSA délipidée à 5 mg/ml final • dilutions : en milieu de culture stérile • concentration finale testée: 0.001 % (50 µg/ml BSA 1^e conc, final) Acide Ganodérique B • solution stock : 10 % en DMSO • dilutions : en milieu de culture stérile • concentration finale testée: 0.04 % (50 µg/ml BSA final) Acide Ganodérique C2 • solution stock : 10 % en DMSO • dilutions : en milieu de culture stérile • concentration finale testée: 0.04 % (50 µg/ml BSA final) Acide Ganodérique G • solution stock : 10 % en DMSO • dilutions : en milieu de culture stérile • concentration finale testée: 0.04 % (50 µg/ml BSA final)
Les cellules ont été ensemensées à 17000 cellules par puits, en plaques 96 puits, une plaque pour chaque temps de culture. Toutes les conditions en triplicata (3 puits de culture). Les cellules ont été pré-cultivées pendant 24 h en milieu sans SVF. Après 24 h de pré-culture, les milieux ont été remplacés par un milieu équivalent contenant) les produits à l'essai ou non (contrôles) ou la DHEA à 0.001 %. Après 4 h d'incubation, une solution 10 fois concentrée de « phorbol myristate acétate » (PMA, Sigma, 0.1 µg/ml final) a été ajoutée ou non (contrôles) et les cellules ont été cultivées pendant 6 h supplémentaires.
A la fin de chaque temps de culture, les milieux de culture ont été récupérés et congelés à -80 °C pour dosage de la quantité de MMP-1 et la viabilité des tapis cellulaires a été contrôlée en utilisant un test standard de réduction du MTT.
Le dosage de MMP-1 (collagénase interstitielle humaine) a été réalisé par ELISA, à l'aide d'un kit « BIOTRACK human MMP-1, ELISA system, Amersham RPN2610 », selon les directives du fournisseur.
Résumé des conditions testées : • Modèle : fibroblastes humains • Test : dosage quantité de MMP-1 produite (protéine, ELISA) • Milieux : sans sérum • Tests : produits à l'essai, DHEA 0.001 % ou contrôles non traités, pendant 4 h • Stimulation : ajout de PMA (ou non, contrôles) et culture pendant 6 h. Produits (selon viabilités sur fibroblastes): • A.G. B 0:04 %; • A.G. C2 0.04 %; • A.G. G 0.04 %; • DHEA 10 µg/ml
Les données brutes de comptage ont été transférées et traitées sous le logiciel PRISM® (Graph Pad Software).
Les comparaisons inter-groupes ont été réalisées par analyse de variance (ANOVA) à l'aide du test de comparaison multiple de Dunnett.

Setting [1] is: Fibroblast, ganoderic acid 0,04%, normal human fibroblasts, +PMA, 6h.
Where [2] appears, read: ganoderic acid 0,04%, normal human fibroblasts, 6h, Témoin + PMA 17,89.

Bounds are passed on as bounds.

As for `CC(CC(=O)CC(C)C1CC(=O)C2(C)C3=C(C(=O)CC12C)C1(C)CCC(O)C(C)(C)C1CC3O)C(=O)O` (stereo not shown) [A. ganodérique B, Acide Ganodérique B], the inhibition at 0.04 % (Fibroblast, 6 h) was about 30%. The activity at 0.04 % under setting [1] came to 76%. In addition, the “MMP1 (ng/ml)” value under setting [2] is recorded as 13,52 ng/ml.
As for `CC(CC(=O)CC(C)C1CC(O)C2(C)C3=C(C(=O)CC12C)C1(C)CCC(O)C(C)(C)C1CC3O)C(=O)O` (stereo not shown) [A. ganodérique C2, Acide Ganodérique C2], where the note is “Fibroblast, 6 h”, the inhibition at 0.04 % is about 30%. Besides, the activity at 0.04 % under setting [1] turned out to be 72%. Further, the “MMP1 (ng/ml)” value under setting [2] was 12,95 ng/ml.
As to `CC(CC(=O)CC(C)C1CC(=O)C2(C)C3=C(C(=O)C(O)C12C)C1(C)CCC(O)C(C)(C)C1CC3O)C(=O)O` (stereo not shown) [A. ganodérique G, Acide Ganodérique G], the inhibition at 0.04 % (Fibroblast, 6 h) is over 40%. The activity at 0.04 % under setting [1] was determined as 57%. The “MMP1 (ng/ml)” value under setting [2] is 10,15 ng/ml. Further, where the note is “result in words, comparison between ganoderic acids B, C2 and G at 0.04 %”, the “effets anti-vieillissement (régulation MMP1)” value is on record as “activité supérieure aux deux autres acides ganodériques”.
As to `C[C@]12CC[C@H](O)CC1=CC[C@@H]1[C@@H]2CC[C@]2(C)C(=O)CC[C@@H]12` [DHEA, DéHydroEpiAndrostérone, reference compound], the “MMP1 (ng/ml)” value (DHEA 0,001%, normal human fibroblasts, 6h, Témoin + PMA 10,54) is on record as 6,38 ng/ml. For the same compound, the “% témoin +PMA” value (DHEA 0,001%, normal human fibroblasts, +PMA, 6h, 360 min) is reported as 61%. Further, where the note is “Fibroblast, 6 h, read-out: % témoin +PMA, DHEA 0,001%, normal human fibroblasts, +PMA, 6h”, the activity at 0.001 % came to 60%.
